# Counter-ions that a name gives are not always drawn.
# Target: SHP2 (Homo sapiens (Human), UniProt Q06124)
# Assay: SHP2 Allosteric Inhibition Assay (DiFMUP prompt fluorescence)
# Format: biochemical
# Conditions: 0.25 nM SHP2 activated with 0.5 μM peptide IRS1_pY1172(dPEG8)pY1222; substrate DiFMUP 100 μM; 25° C.
row,IC50 [µM],Structure (SMILES)
1,≥ 10,"C[C@@H]1C[C@H](O)CCN1c1cnc2c(N3CCCc4ncccc43)n[nH]c2n1 (racemic) [Compound 95, (2R,4R)-1-(3-(3,4-dihydro-1,5-naphthyridin-1(2H)-yl)-1H-pyrazolo[3,4-b]pyrazin-6-yl)-2-methylpiperidin-4-ol]"
2,< 1,"C[C@@H]1C[C@@H](CN)CCN1c1cnc2c(N3CCCc4ncccc43)n[nH]c2n1 (racemic) [Compound 104, ((2R,4S)-1-(3-(3,4-dihydro-1,5-naphthyridin-1(2H)-yl)-1H-pyrazolo[3,4-b]pyrazin-6-yl)-2-methylpiperidin-4-yl)methanamine]"
3,1 to 10,"C[C@@H]1C[C@H](CN)CCN1c1cnc2c(N3CCCc4ncccc43)n[nH]c2n1 (racemic) [Compound 109, ((2R,4R)-1-(3-(3,4-dihydro-1,5-naphthyridin-1(2H)-yl)-1H-pyrazolo[3,4-b]pyrazin-6-yl)-2-methylpiperidin-4-yl)methanamine]"
4,≥ 10,NC[C@H]1CCN(c2cnc3c(N4CCCc5ncccc54)n[nH]c3n2)[C@H](Cc2ccccc2)C1 (racemic) [Compound 158]
5,1 to 10,NC[C@H]1CCN(c2cnc3c(N4CCCc5ncccc54)n[nH]c3n2)[C@@H](Cc2ccccc2)C1 (racemic) [Compound 159]
6,1 to 10,"N[C@@H]1CCC[C@@]12CCN(c1cnc3c(N4CCCc5ncccc54)n[nH]c3n1)C2 (relative stereo) [Compound 206, rel-(5S,6R)-2-(3-(3,4-dihydro-1,5-naphthyridin-1(2H)-yl)-1H-pyrazolo[3,4-b]pyrazin-6-yl)-2-azaspiro[4.4]nonan-6-amine]"
7,< 1,"C[C@@H]1CCN(c2n[nH]c3nc(N4CCC5(CC4)CO[C@@H](C)[C@H]5N)cnc23)c2ccc(-c3ncc[nH]3)nc21 (relative stereo) [Compound 448, (3S,4S)-8-{3-[(4R*)-6-(1H-imidazol-2-yl)-4-methyl-1,2,3,4-tetrahydro-1,5-naphthyridin-1-yl]-1H-pyrazolo[3,4-b]pyrazin-6-yl)-3-methyl-2-oxa-8-azaspiro[4.5]decan-4-amine hydrochloride]"
8,< 1,"C[C@@H]1OCC2(CCN(c3cnc4c(N5CC[C@H](C)c6nc(-c7ncc[nH]7)ccc65)n[nH]c4n3)CC2)[C@@H]1N (relative stereo) [Compound 449, (3S,4S)-8-{3-[(4R*)-6-(1H-imidazol-2-yl)-4-methyl-1,2,3,4-tetrahydro-1,5-naphthyridin-1-yl]-1H-pyrazolo[3,4-b]pyrazin-6-yl)-3-methyl-2-oxa-8-azaspiro[4.5]decan-4-amine hydrochloride]"
9,< 1,"C[C@@H]1CCN(c2n[nH]c3nc(N4CCC5(CC4)CO[C@@H](C)[C@H]5N)cnc23)c2ccc(-c3noc(=O)[nH]3)nc21 (relative stereo) [Compound 450, 3-[(8R*)-5-{6-[(3S,4S)-4-amino-3-methyl-2-oxa-8-azaspiro[4.5]decan-8-yl]-1H-pyrazolo[3,4-b]pyrazin-3-yl}-8-methyl-5,6,7,8-tetrahydro-1,5-naphthyridin-2-yl]-4,5-dihydro-1,2,4-oxadiazol-5-one]"
10,< 1,"C[C@@H]1OCC2(CCN(c3cnc4c(N5CC[C@H](C)c6nc(-c7noc(=O)[nH]7)ccc65)n[nH]c4n3)CC2)[C@@H]1N (relative stereo) [Compound 451, 3-[(8R*)-5-{6-[(3S,4S)-4-amino-3-methyl-2-oxa-8-azaspiro[4.5]decan-8-yl]-1H-pyrazolo[3,4-b]pyrazin-3-yl}-8-methyl-5,6,7,8-tetrahydro-1,5-naphthyridin-2-yl]-4,5-dihydro-1,2,4-oxadiazol-5-one]"
11,< 1,"CCC1CCN(c2n[nH]c3nc(N4CCC(C)(CN)CC4)cnc23)c2ccccc21 (single isomer, unassigned) [Compound 102, hydrochloride]"
12,< 1,"CCC1CCN(c2n[nH]c3nc(N4CCC(C)(CN)CC4)cnc23)c2ccccc21 (single isomer, unassigned) [Compound 103, hydrochloride]"
13,< 1,"C[C@H](N)C1(C)CCN(c2cnc3c(N4CCCc5ncccc54)n[nH]c3n2)CC1 (single isomer, unassigned) [Compound 110]"
14,< 1,"C[C@@H](N)C1(C)CCN(c2cnc3c(N4CCCc5ncccc54)n[nH]c3n2)CC1 (single isomer, unassigned) [Compound 111]"
15,< 1,"C[C@@H]1CCN(c2n[nH]c3nc(N4CCC(C)(CN)CC4)cnc23)c2ccc(C#N)cc21 (single isomer, unassigned) [Compound 115]"
16,< 1,"C[C@H]1CCN(c2n[nH]c3nc(N4CCC(C)(CN)CC4)cnc23)c2ccc(C#N)cc21 (single isomer, unassigned) [Compound 116]"
17,< 1,"CC1CCN(c2n[nH]c3nc(N4CCC(C)(CN)CC4)cnc23)c2cccnc21 (single isomer, unassigned) [Compound 128]"
18,< 1,"C[C@@H]1CCN(c2n[nH]c3nc(N4CCC(C)(CN)CC4)cnc23)c2ccc(-c3nccs3)nc21 (single isomer, unassigned) [Compound 196, hydrochloride]"

row,IC50 [µM],Structure (SMILES)
1,< 1,"C[C@H]1CCN(c2n[nH]c3nc(N4CCC(C)(CN)CC4)cnc23)c2ccc(-c3nccs3)nc21 (single isomer, unassigned) [Compound 197, hydrochloride]"
2,< 1,"C[C@@H]1CCN(c2n[nH]c3nc(N4CCC5(CC4)CO[C@@H](C)[C@H]5N)cnc23)c2ccc(C#N)c(F)c21 (single isomer, unassigned) [Compound 229]"
3,< 1,"C[C@@H]1OCC2(CCN(c3cnc4c(N5CC[C@H](C)c6c5ccc(C#N)c6F)n[nH]c4n3)CC2)[C@@H]1N (single isomer, unassigned) [Compound 230]"
4,< 1,"C[C@@H]1CCN(c2n[nH]c3nc(N4CCC5(CC4)CO[C@@H](C)[C@H]5N)cnc23)c2cc(F)cnc21 (single isomer, unassigned) [Compound 262, hydrochloride]"
5,< 1,"C[C@@H]1OCC2(CCN(c3cnc4c(N5CC[C@H](C)c6ncc(F)cc65)n[nH]c4n3)CC2)[C@@H]1N (single isomer, unassigned) [Compound 263, hydrochloride]"
6,< 1,"C[C@@H]1OCC2(CCN(c3cnc4c(N5CC[C@H](C)c6nc(-c7ncon7)ccc65)n[nH]c4n3)CC2)[C@@H]1N (single isomer, unassigned) [Compound 370]"
7,< 1,"C[C@@H]1CCN(c2n[nH]c3nc(N4CCC5(CC4)CO[C@@H](C)[C@H]5N)cnc23)c2ccc(-c3ncon3)nc21 (single isomer, unassigned) [Compound 371]"
8,< 1,"C[C@@H]1C[C@@H](N)CCN1c1cnc2c(N3CCCc4ncccc43)n[nH]c2n1 (stereo in doubt) [Compound 24, rel-(2R,4S)-1-(3-(3,4-Dihydro-1,5-naphthyridin-1(2H)-yl)-1H-pyrazolo[3,4-b]pyrazin-6-yl)-2-methylpiperidin-4-amine]"
9,< 1,"C[C@H]1C[C@H](N)CCN1c1cnc2c(N3CCCc4ncccc43)n[nH]c2n1 (stereo in doubt) [Compound 25, rel-(2S,4R)-1-(3-(3,4-dihydro-1,5-naphthyridin-1(2H)-yl)-1H-pyrazolo[3,4-b]pyrazin-6-yl)-2-methylpiperidin-4-amine]"
10,< 1,"C[C@@H]1C[C@@H](N)CCN1c1cnc2c(N3CCCc4ncccc43)n[nH]c2n1 (stereo in doubt) [Compound 74, rac-(2R,4S)-1-(3-(3,4-dihydro-1,5-naphthyridin-1(2H)-yl)-1H-pyrazolo[3,4-b]pyrazin-6-yl)-2-methylpiperidin-4-amine]"
11,1 to 10,"N[C@@H]1CCC[C@]12CCN(c1cnc3c(N4CCCc5ncccc54)n[nH]c3n1)C2 (stereo in doubt) [Compound 204, rel-(5R,6R)-2-(3-(3,4-dihydro-1,5-naphthyridin-1(2H)-yl)-1H-pyrazolo[3,4-b]pyrazin-6-yl)-2-azaspiro[4.4]nonan-6-amine]"
12,1 to 10,"N[C@H]1CCC[C@@]12CCN(c1cnc3c(N4CCCc5ncccc54)n[nH]c3n1)C2 (stereo in doubt) [Compound 205, rel-(5S,6S)-2-(3-(3,4-dihydro-1,5-naphthyridin-1(2H)-yl)-1H-pyrazolo[3,4-b]pyrazin-6-yl)-2-azaspiro[4.4]nonan-6-amine]"
13,< 1,"CC1CCN(c2n[nH]c3nc(N4CCC5(CC4)CO[C@@H](C)[C@H]5N)cnc23)c2ccc(C(N)=O)nc21 (stereo in doubt) [Compound 264, (8S)-5-{6-[(3S,4S)-4-amino-3-methyl-2-oxa-8-azaspiro[4.5]decan-8-yl]-1H-pyrazolo[3,4-b]pyrazin-3-yl}-8-methyl-5,6,7,8-tetrahydro-1,5-naphthyridine-2-carboxamide]"
14,< 1,"CC1CCN(c2n[nH]c3nc(N4CCC5(CC4)CO[C@@H](C)[C@H]5N)cnc23)c2ccc(C(N)=O)nc21 (stereo in doubt) [Compound 265, (8R)-5-{6-[(3S,4S)-4-amino-3-methyl-2-oxa-8-azaspiro[4.5]decan-8-yl]-1H-pyrazolo[3,4-b]pyrazin-3-yl}-8-methyl-5,6,7,8-tetrahydro-1,5-naphthyridine-2-carboxamide]"
15,< 1,"COCCNC(=O)c1ccc2c(n1)C(C)CCN2c1n[nH]c2nc(N3CCC4(CC3)CO[C@@H](C)[C@H]4N)cnc12 (stereo in doubt) [Compound 437, (8S)-5-(6-[(3S,4S)-4-amino-3-methyl-2-oxa-8-azaspiro[4.5]decan-8-yl]-1H-pyrazolo[3,4-b]pyrazin-3-yl)-N-(2-methoxyethyl)-8-methyl-5,6,7,8-tetrahydro-1,5-naphthyridine-2-carboxamide hydrochloride]"
16,< 1,"N[C@@H]1CC(O)CC12CCN(c1cnc3c(N4CCCc5ncccc54)n[nH]c3n1)CC2 (stereo in doubt) [Compound 468, (2R,4R)-4-amino-8-(3-(3,4-dihydro-1,5-naphthyridin-1(2H)-yl)-1H-pyrazolo[3,4-b]pyrazin-6-yl)-8-azaspiro[4.5]decan-2-ol]"
17,< 1,"NC1CCCC12CCN(c1cnc3c(Sc4cccnc4C(F)(F)F)n[nH]c3n1)CC2 (stereo in doubt) [Compound 476, (S)-8-(3-((2-(trifluoromethyl)pyridin-3-yl)thio)-1H-pyrazolo[3,4-b]pyrazin-6-yl)8-azaspiro[4.5]decan-1-amine]"

# Source: US11591336B2 (Relay Therapeutics, Inc., priority 2017, dated 2023)
